Key:
NCI-H295R = assay: area under concentration-response curve (viability) (AUC (a.u.)); higher = less active; details: 48 h
Summary of the method: (§1)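 For each of three adrenocortical carcinoma cell lines, 500–1,000 cells/well were placed in 5 µL medium in 1,536-well plates. A 23 nL volume of every library compound was added at 11 concentrations. Following 48 h, a 15-minute room-temperature CellTiter-Glo step preceded luminescence reading, with signals normalised per plate to vehicle and empty-well controls. AC50 and area under the curve were derived by curve fitting, retaining only inhibitory or non-responding curve classes.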

CU-ACC1 = assay: as above; details: 48 h
Summary of the method: as §1

Structure (SMILES)	area under concentration-response curve (NCI-H295R)	area under concentration-response curve (CU-ACC1)
COC1=CC=CC(=C1/C2=N/CC3=C(N=C(NC4=CC(=C(C=C4)C(O)=O)OC)N=C3)C5=CC=C(Cl)C=C25)F	469	441
CN(C[C@@H]1COCCO1)[S+]([O-])(=O)NC2=CC3=C(C=C2)\C=C/C4=C(C=C(C=N4)C5=C[N](C)N=C5)C3=O	578	547
CONC(=O)Nc1ccc(-c2sc3c(c2CN(C)C)c(=O)n(-c2ccc(OC)nn2)c(=O)n3Cc2c(F)cccc2F)cc1	458	354
CCC(C)N(C)C(=O)c1cc2ccccc2c(-c2ccccc2Cl)n1 (configuration not stated)	337	492
CN1CCCN(CC1)C2=CC=C3C(=O)\C(=C/4SC5=C(C=CC=C5)N4C3=N2)C(=O)NCC6=CN=C(C)C=N6	554	528
NC(=O)c1nc(F)cnc1O	553	506
CC(C)(S)[C@@H](N)C(=O)O	711	637
COc1cc2ncnc(Oc3cccc(NC(=O)Nc4cc(C(C)(C)C(F)(F)F)on4)c3)c2cc1OC	467	446
N[C@@H](Cc1c[nH]c2ccc(O)cc12)C(=O)O	567	483
C/N=c1\ncc2cc(-c3cc(N/C(O)=N/CCC(C)(C)C)c(F)cc3C)c(C)nc2[nH]1	474	454
Cc1ccccc1C(C(=O)NC1CCCCC1)N(C(=O)CNc1ccc(C#N)cc1)c1cccc(F)c1 (configuration not stated)	507	485
CN1C(=O)N[C@H](Cc2c[nH]c3c(Cl)cccc23)C1=O	445	425
Cc1c(F)ccc(C(=O)Nc2cc([N+](=O)[O-])ccc2N2CCN(C)CC2)c1Cl	434	457
CC(C)(C)C(=O)N1\N=C/C[C@H]1C2=CC=CC=C2	568	549
Cn1ncc(Cl)c1-c1cc(C(=O)N[C@H](CN)Cc2cccc(F)c2)sc1Cl	335	305
CO[C@H]1CC[C@]2(CC1)CC3=C(C=C(C=C3)C4=CN=CC(=C4)C#CC)[C@@]2/5\N=C(C)/C(=N5)N	532	487
C[C@@H]1CC(=O)Nc2cccc(-c3cnn(C(C)(C)C)c3)c2N1	570	551
c1cc(OCCN2CCCCC2)cc(-c2n[nH]c3ccc(-c4nc[nH]n4)cc23)c1	563	525
CCOC(=O)C1=CCCCC1[S+](=O)([O-])Nc1ccc(F)cc1Cl (configuration not stated)	573	517
COC1=C(OC)C(=O)C(C/C=C(\C)CC/C=C(\C)CC/C=C(\C)CC/C=C(/C)CC/C=C(\C)CC/C=C(\C)CC/C=C(\C)CC/C=C(\C)CC/C=C(\C)CCC=C(C)C)=C(C)C1=O	559	502
CCN1\C=C(C(O)=O)/C(=O)C2=C1C=C(N3CCN(C)CC3)C(=C2)F	555	511
O=C1OC(COc2ccccc2[N+](=O)[O-])CC1Cc1ccccc1 (configuration not stated)	521	412
COCCOC(=O)C/1=C(C)/NC/2=C(C1C3=CC=CC(=C3)O)/C(=O)CC(C2)C4=C(OC)C=CC=C4 (configuration not stated)	507	446
COc1cccc(OC)c1-c1cc(C(=O)NC2(C(=O)O)C3CC4CC(C3)CC2C4)nn1-c1ccnc2cc(Cl)ccc12 (configuration not stated)	569	513
C1C\N=C(\NC(C2CC2)C3CC3)O1	591	542
O=C(Nc1cnccc1Cl)N1CCN(Cc2ccc3c(c2)OC(F)(F)O3)CC1	414	330
CN[C@@H](C)[C@H]1[C@H](O)C[C@@]2(C)[C@@H]3CC[C@H]4C(C)(C)[C@@H](NC)CC[C@@]45C[C@@]35CC[C@]12C	613	546
CCC[S+](=O)([O-])Nc1ccc(F)c(C(=O)c2c[nH]c3ncc(Cl)cc23)c1F	493	475

Structure (SMILES)	area under concentration-response curve (NCI-H295R)	area under concentration-response curve (CU-ACC1)
Nc1nc2cc(-c3ccc4ncc(C(=O)N5CCOCC5)n4c3)ccc2o1	478	514
Cn1cnc([N+](=O)[O-])c1Sc1ncnc2nc[nH]c12	472	427
NC(=O)c1cc(F)cc2c1C(=O)N(C1CCN(C3CCC(F)(F)CC3)CC1)C2	568	541
CCOC(=O)Nc1ccc(NCc2ccc(F)cc2)cc1N	578	543
Cn1cnc2c1c(=O)[nH]c(=O)n2C	575	544
C[N]1N=CC=C1C/2=C(\C)N(C(=O)C(=C2)/C(=O)NCC3=NC=C(C=C3)[S+](C)([O-])=O)C4=CC=CC(=C4)C(F)(F)F	277	380
O=C(NNc1ccccc1)c1ccncc1	527	483
CCCCC[C@H](O)/C=C/[C@H]1[C@H](O)CC(=O)[C@@H]1C/C=C\CCCC(=O)O	529	485
COc1cc2c(cc1OC)C1CC(=O)C(CC(C)C)CN1CC2 (configuration not stated)	567	506
CCCC[S+](=N)([O-])CCC(N)C(=O)O (configuration not stated)	533	472
C[C@H]1C[C@H]2[C@@H]3CC[C@](O)(C(=O)CO)[C@@]3(C)C[C@H](O)[C@@H]2[C@@]\4(C)/C=C\C(=O)\C=C14	553	520
CC1=CC(=CC=C1)OC/2=C/NC(=O)/N=C2	566	539
Cc1c(CCOc2ccc(C(=O)O)cc2)c2cc(Cl)ccc2n1C(c1ccccc1)c1ccccc1	600	536
COc1ccc2nc3[nH]nc(C)c3c(NCCOCCO)c2c1	574	545
CCC[S+](=O)([O-])Nc1ccc(F)c(C(=O)c2c[nH]c3ncc(-c4ccc(Cl)cc4)cc23)c1F	556	–
CCN(CCO)CCCC(C)Nc1ccnc2cc(Cl)ccc12 (configuration not stated)	368	–
CC(C)(O)c1coc([S+](=O)([O-])NC(=O)Nc2c3c(cc4c2CCC4)CCC3)c1	555	–
O=C(O)CCCc1c[nH]c2ccccc12	400	–
C/C=C(/C(=C/C)c1ccc(O)cc1)c1ccc(O)cc1	366	–
CCOC(=O)C(C#N)C\1C2=CC(=CC=C2O\C(=C1C(=O)OCC)N)Br (configuration not stated)	569	–
CC\12CCC(=O)\C=C1CCC3C2CCC4(C)C3CCC4(O)C#C (configuration not stated)	440	–
CCCN(CCC)C(=O)C\1=C\C2=CC=C(C=C2\N=C(N)/C1)C3=CC=C(C=C3)C(=O)N4CCCC4	581	–
COc1ccc(-c2cnc3c(-c4cccc5ncccc45)cnn3c2)cc1	595	–
CCc1cc(C(N)=S)ccn1	552	–
C[C@@H]1C(=O)O[C@H]2CC34[C@H]5C[C@@H](C(C)(C)C)C36[C@@H](OC(=O)[C@@H]6O)O[C@@]4(C(=O)O5)[C@]21O (some centres not stated)	21.9	–
O=C(O)c1ccc(-c2c[nH]c3ncc(-c4ccccc4)cc23)cc1C1CCCC1	501	–
OC[C@H]1O[C@@H](Oc2cc(O)cc(/C=C/c3ccc(O)cc3)c2)[C@H](O)[C@@H](O)[C@@H]1O	579	–

Reference: the supplement of paper PMC10949913
